How the values were obtained:
[1] = test system: L1210 cells; assay: Continuous single-cell monitoring of SNACS (stiffness) of L1210 cells through mitosis in the SMR; type: cell-based, mouse
Description: Next, it was determined if both stiffness and buoyant mass of the same cell could be repeatedly measured in order to monitor cell stiffness during the cell cycle. To do so, a previously reported fluidic control strategy was implemented that enables continuous, non-invasive SMR measurements of the same cell. Employing on-chip microscopy capable of acquiring Differential Interference Contrast (DIC) images, stiffness, buoyant mass and morphology of the same cell over multiple generations was simultaneously measured. […] SNACS is shown in dashed lines when measurement error becomes statistically significant. The morphology of the cell was imaged to pinpoint the onset of anaphase as well as to correct for mass elongation effects on the SNACS measurement during anaphase and telophase (FIG. 24A-24C). Dynamic but consistent changes in cell stiffness during mitosis were observed. […] The error in the SNACS measurement increased after cells became full doublets (˜15 min after the onset of anaphase), making subsequent stiffness changes until division not statistically significant (p>0.05). Although the duration and magnitude of the dynamics varied, we observed a similar trend in cell stiffness in other mammalian cell types: BaF3 (FIG. 15D) and S-Hela (FIG. 15E).
(§1) The system was operated by placing a chip on top of a hollow copper plate that is connected to a water bath by tubing to maintain constant temperature on the chip. For all single-cell, long-term monitoring experiments, the temperature of the copper plate was kept at 37° C. The sample was loaded to the SMR from vials pressurized with air containing 5% CO2 to maintain the pH of the culture. A 0.007″ inner diameter fluorinated ethylene propylene (FEP) tubing (IDEX Health & Science) was utilized to push the sample into the chip. The fluid flow was controlled using two electronic pressure regulators (Proportion Air QPV1) and three solenoid valves (SMC-S070), which were controlled by National Instruments control cards and a custom measurement software (Labview 2012). Typically, differential pressure of ˜0.5 psi was applied across the SMR, yielding a flow rate of ˜2 nL/s (calculated based on the frequency modulation signal due a cell transit; typically 200-300 ms) to maintain constant shear and data rate. Under these conditions, the L1210 cell growth rate was similar to that in culture. Beads, hydrogels and drug-response end-point assays were measured at room temperature. All end-point assays were conducted within 30 minutes after samples were loaded. New samples were flushed every several minutes into the input bypass to minimize potential size bias due to particle/cell settling in the tubing and sample vials.
(§2) To measure buoyant mass (antinode) and node deviation (node) from the acquired resonant frequency waveforms, the frequency data was filtered with a third order Savitzky-Golay low-pass filter and the local minima (antinode) that is below a user-defined threshold. Next, local maxima (node) around the peaks were determined. To correct for the possible slope during the particle/cell transition through the cantilever, a baseline was calculated and subtracted from the measured peaks by fitting a first order polynomial at frequency data points prior and posterior of the cell signal. For single-cell volume measurements (FIG. 16A), baselines were fitted with a second order polynomial to account for the baseline fluctuation due to fluid exchange. […]

[2] = test system: L1210 cells; assay: SNACS / node deviation end-point assay of chemically perturbed L1210 cells in the suspended microchannel resonator (SMR); type: cell-based, mouse; conditions: for SNACS (size-normalized acoustic scattering, proxy of cell stiffness) after treatment: L1210 cells pretreated 20-30 min, LatB 0.02-1 μM, CytoD 1 μM, Bleb 50 μM, Noc 1 μg/ml, vs DMSO 0.1% control, LatB and CytoD p<0.0001
Description: SMR devices were fabricated at CEA-LETI, Grenoble, France. The fluid channel in the detection regime is covered with thin silicon layers. The SMRs were vibrated with a piezo-ceramic plate bonded underneath the chip, providing actuation to resonate the cantilever beam in the second mode. To track the changes in the resonant frequency of the cantilever as a function of time, the cantilever was kept in a feedback loop oscillating at its resonant frequency. The motion of the cantilever was measured using piezoresistors that are implanted at the base of the silicon cantilever. A digital control platform was utilized to oscillate the SMR in direct feedback mode, where the motion signal acquired from the piezoresistor is delayed, amplified, and utilized as the drive signal used to actuate the cantilever. The measurement bandwidth of this control system was set at ˜1,500 Hz, which is wide enough to capture frequency modulation signals created by cell transit events and narrow enough to minimize noise.
as §1
as §2, with “exchange. Both local maxima and minima in the cell signal were subtracted from the linear baseline to obtain the buoyant mass (local minima, antinode) and node deviation (local maxima, node). For single-cell end-point assays (population measurements), frequency peaks were rejected when local minima (two antinodes) differed from each other more than 10% of the average value and/or local maxima (two nodes) differed from each other more than 15% of the average value of local minima, which occur when multiple cells or cell with debris enter the SMR simultaneously. Peaks were rejected if their shape was atypical (e.g., particle/cell stuck in the cantilever).” for “exchange.”

[3] = test system: L1210 cells; assay: Imaging of F-actin (LifeAct-RFP) in live L1210 cells before and after chemical treatment; type: cell-based, mouse; conditions: live L1210 cells expressing LifeAct-RFP, before and after 30 min treatment; 1 μM LatB, 1 μM CytoD, Noc 1 μg/ml
Description: L1210 FUCCI cells, which express the fluorescence cell cycle marker construct mAG-hGem, were transfected with LifeAct, a F-actin labelling red fluorescent protein construct, using rLVUbi-LifeAct-TagRFP lentiviral vector obtained from ibidi GmbH. Several rounds of transfections were carried out using spinoculation. In short, 1.5×10^5 L1210 FUCCI cells were mixed with 10 μg/ml Polybrene (EMD Millipore) and 1×106 TU of lentivirus, and the mixture was centrifuged at 800 g for 60 minutes at 25° C. After centrifugation, the cells were moved to normal cell culture media, grown overnight, and the spinoculation procedure was repeated. Cells were moved to normal culture media after three rounds of transfections, and 24 hours later, selection was started by adding 10 μg/ml Puromycin (Sigma-Aldrich). After a week of selection, the transfected population was enriched for cells expressing high levels of LifeAct by FACS sorting using BD FACS Aria.
L1210 cells expressing the FUCCI (mAG-hGem) and LifeAct-RFP F-actin probe (rLVUbi-LifeAct-TagRFP) constructs were imaged on poly-lysine coated glass bottom CellView cell culture dishes (Greiner Bio-One). Media, CO2, and temperature conditions during the imaging were the same as within the SMR. Imaging was carried out using a DeltaVision widefield deconvolution microscope with standard FITC and TRICT filters, 100× oil immersion objective and immersion oil with refractive index of 1.522. […]
All images were deconvolved using standard settings in the softWoRX software. To normalize the effect of photo-bleaching, the total LifeAct signal in the entire images (2048×2048 pixels) that contained multiple cells was calculated. […] During the subsequent image analyses, the LifeAct intensity was corrected with the corresponding decay coefficient calculated from the polynomial fit for each frame. To analyze individual cells, the representative cells that went through the nuclear envelope breakdown and/or cytokinesis during the experiment were determined. These cells were cut out of the larger images and analyzed individually (FIG. 28A).

[4] = test system: Baf3 cells; assay: Node deviation versus time of Baf3 cells treated with drug (single-cell therapeutic sensitivity); type: cell-based; conditions: a few hours of treatment
Description: Acoustic scattering may be used as an early detection marker of single-cell therapeutic sensitivity (FIGS. 11A-11B). […] Viability and proliferation assays are generally not sensitive until 24 hours of drug exposure (data not shown).

Cc1ccc2c(c1)C(=O)C1(O)CCN(c3ccccc3)C1=N2 (stereo not drawn) [Blebbistatin] was tested, and the “stiffness in early mitosis” value ([1]; 25 μM Blebbistatin) was “still displayed a gradual stiffness decrease in early mitosis”, the “stiffness dynamics in anaphase and telophase” value ([1]; 25 μM Blebbistatin, compared with untreated cells) was “disappeared” and the “SNACS (size-normalized acoustic scattering, proxy of cell stiffness) after treatment” value [2] was “decreased the SNACS”.

In the case of C=C1[C@@H](C)[C@H]2[C@H](Cc3ccccc3)NC(=O)[C@]23[C@H](OC(C)=O)/C=C/[C@@](C)(O)C(=O)[C@@H](C)C/C=C/[C@H]3[C@@H]1O [Cytochalsin D], the “SNACS (size-normalized acoustic scattering, proxy of cell stiffness) after treatment” value [2] is reported as “decreased the SNACS” and the “actin cortex morphology (LifeAct F-actin images)” value (“actin cortex morphology” for short) [3] is reported as “polarized cortex”.

CCN(c1nc(N)c(C(=O)NC(=N)N)nc1Cl)C(C)C [EIPA, ethylisopropylamiloride] was tested, and the “stiffness increase in early anaphase” value ([1]; 10 μM EIPA) was “not present” and the “ΔSNACS, SNACS change in prophase and metaphase (early mitosis)” value ([1]; 10 μM EIPA (n=5), 5 μM STLC (n=8), mean±standard deviation, control −0.22±0.01) was −0.08±0.02.

Cc1ccc(NC(=O)c2ccc(CN3CCN(C)CC3)cc2)cc1Nc1nccc(-c2cccnc2)n1 [Imatinib] was tested, and the “node deviation (ND) of treated cells versus DMSO” value [4] was “distinct ND”.

C/C1=C/C(=O)O[C@@H]2C[C@@H](CC[C@H](C)/C=C\CC1)O[C@@](O)([C@@H]1CSC(=O)N1)C2 [Latrunculin B] was tested, and the “SNACS (size-normalized acoustic scattering, proxy of cell stiffness) after treatment” value [2] was “decreased the SNACS” and the “actin cortex morphology” value [3] was “punctured cortex”.

With COC(=O)Nc1nc2ccc(C(=O)c3cccs3)cc2[nH]1 [Nocodazole] the “SNACS (size-normalized acoustic scattering, proxy of cell stiffness) after treatment” value [2] was “reduced SNACS” and the “actin cortex morphology” value [3] was “affected the actin cortex morphology”.

With N[C@@H](CSC(c1ccccc1)(c1ccccc1)c1ccccc1)C(=O)O [STLC, S-trityl-1-cysteine] the “stiffness (SNACS) during metaphase arrest” value ([1]; 5 μM STLC) was “stiffness remained low for several hours”.

With paraformaldehyde the “SNACS after crosslinking of cellular structures” value [2] was “opposite change in SNACS” and the “node deviation after treatment” value [2] was “increased the node deviation”.

— patent publication US11754486B2, “Systems and methods for measuring properties of particles” (Massachusetts Institute of Technology, priority 2017, dated 2023)
